# Publication PMC4237671 (Anesthesiology, 2014)
# “Also recorded” adds a separate entry of the source. Like-named read-outs stand apart in the source and are kept apart here.
# Tests used:
# [1] = Pharmacokinetics after single bolus followed by 2-h infusion
# [2] = Pharmacokinetics after single IV bolus; conditions: for Co: back-extrapolated; for Plasma concentration range during anesthetic recovery: after IV bolus, approximate
# [3] = system: adrenocortical responsiveness to ACTH1-24 stimulation; assay: Adrenocortical recovery after hypnotic infusion; conditions: for Plasma cortisol concentrations compared to vehicle group over time: after 2-h infusion, ACTH1-24 stimulated; for Shared Hill coefficient of in vivo adrenocortical concentration-response curves: both data sets fit to a single Hill coefficient
# dogs [4] = assay: Observation of myoclonus during and after hypnotic infusion; conditions: for Persistence of myoclonus in the postinfusion period: after 2-h infusions; for Incidence of myoclonus during infusion: for all studies
# dogs [5] = assay: Pharmacodynamic modeling: plasma concentration vs anesthesia score; format: in vivo, beagle dog; conditions: bolus, n = 3 dogs; for γ (slope parameter): sigmoid Emax fit; for EC anesthesia score 3: venous plasma concentration when anesthesia score is 3
# dogs [6] = assay: Loss of righting reflexes; format: in vivo, beagle dog
# dogs [7] = format: in vivo, beagle dog
# dogs [8] = assay: Pilot experiments of midazolam dosing in dogs; format: in vivo, beagle dog; conditions: 0.1 - 0.2 mg/kg intravenous bolus per dose
# rats [9] = conditions: cited from earlier work
# rats [10] = conditions: cited from earlier work; remark: listed apart in the source
# [11] = Stability testing of frozen formulated drug; format: physicochemical; conditions: 8 mg/ml in 20% sulfobutylether-β-cyclodextrin pH 7.4, stored frozen at -20°C
# [12] = metabolite, bolus followed by 2-h infusion of parent, n = 4 dogs
# [13] = metabolite after IV bolus of parent, n = 3 dogs
# [14] = IV bolus (CPMM 4 mg/kg, etomidate 2 mg/kg), n = 3 dogs
# [15] = parent drug, IV bolus, n = 3 dogs, time zero to infinity
# [16] = CPMM vs etomidate 2-h infusion study, n = 4 dogs per group
# [17] = CPMM vs propofol 2-h infusion study, n = 4 dogs/group
# [18] = bolus followed by 2-h infusion, dogs
# [19] = parent drug, IV bolus, n = 3 dogs
compound,measurement,setting,value
CC(c1ccccc1)n1cncc1C(=O)O (centres unmarked) [Etomidate Metabolite],Cmax,[1]; [12],"1,680 ±253 ng/ml"
same,t1/2,[1]; [12],69.3 ± 23.4 min
same,Plasma concentration in final blood samples 120 min after administration,"[2]; after etomidate 2 mg/kg bolus, dogs",708 ± 75 ng/mL
same,AUC,[2]; [13],"236,000 ± 18,400 min·ng ml^−1"
same,Cmax,[2]; [13],"2,370 ± 347 ng·ml^−1"
same,t1/2,[2]; [13],61.4 ± 9.13 min
same,tmax,[2]; [13],18.3 ± 18.9 min
"CCOC(=O)c1cncn1[C@H](C)c1ccccc1 [Etomidate, reference compound]",Cmax,"[1]; beagle, dog, in vivo",2050 ng/mL
same,Plasma cortisol concentrations compared to vehicle group over time,[3]; dogs,remained significantly lower than those in the vehicle group throughout the duration of the study (>300 min)
same,Shared Hill coefficient of in vivo adrenocortical concentration-response curves,[3],-2.0
same,Co,[2]; [14],"10,700 ± 1,440 ng/ml"
same,Decrease of plasma concentration from initial to final blood sample (2 h),"[2]; IV bolus, dogs",1.5 orders of magnitude
same,Plasma concentration at 10 min as percentage of initial blood sample,"[2]; IV bolus, dogs",25%
same,Plasma concentration range during anesthetic recovery,[2]; dogs,"approximately 1,000 ng/ml"
same,concentration at 30 s,"[2]; beagle, dog, in vivo, 2 mg/kg",9080 ng/mL
same,concentration at 10 min,"[2]; beagle, dog, in vivo, 2 mg/kg",2230 ng/mL
same,AUC,"[2]; beagle, dog, in vivo, iv, 2 mg/kg, AUC, parent drug, IV bolus, n = 3 dogs, time zero to infinity",1930 ng·h/mL
same,AUC,[2]; [15],"139,000 ± 26,300 min-ng ml^−1"
same,Dogs with myoclonus during infusion,dogs [4]; [16],2 dogs
same,Persistence of myoclonus in the postinfusion period,dogs [4]; dogs,up to approximately an hour
same,Incidence of myoclonus during infusion,dogs [4],2/4
same,γ (slope parameter),dogs [5],1.7 0.9 – 2.4
same,EC anesthesia score 1,dogs [5]; venous plasma concentration when anesthesia score is 1,"1,607 1,026 – 2,517 ng/ml"
same,EC anesthesia score 3,dogs [5],"5,952 4,392 – 8,066 ng/ml"
same,Duration of LoRR,"dogs [6]; 0.5 mg/kg IV bolus, n = 3 dogs",2.7 ± 0.8 min
same,Duration of LoRR,"dogs [6]; 1.9 mg/kg IV bolus, n = 3 dogs",17 ± 5 min
same,Relative hypnotic potency CPMM vs etomidate,dogs [6]; dogs,approximately twice as potent as CPMM
same,Bolus doses that induced LoRR in all dogs,"dogs [6]; dogs, IV bolus",0.5 to 1.9 mg/kg
same,Slope of duration of LoRR vs logarithm of dose,"dogs [6]; dogs, IV bolus",24
same,X-intercept of duration of LoRR vs logarithm of dose,"dogs [6]; dogs, IV bolus",0.37 mg/kg
same,Time after bolus administration of anesthetic recovery,"dogs [7]; CPMM 4 mg/kg or etomidate 2 mg/kg bolus, see fig. 3B",9.0 to 13.8 min
Cc1ncc2n1-c1ccc(Cl)cc1C(c1ccccc1F)=NC2 [midazolam],Effect on myoclonus,"dogs [4]; 0.1 - 0.2 mg/kg intravenous bolus per dose during 2-h hypnotic infusions, dogs",effectively reduced the myoclonus
same,Sedative effect,dogs [8],no discernable sedative effect
CC(C)c1cccc(C(C)C)c1O [propofol],Dogs with myoclonus during infusion,dogs [4]; [17],two dogs had myoclonus
cyclopropyl-methoxycarbonyl metomidate [CPMM],Decrease of plasma concentration from 30 to 60 min after the infusion ended,[1]; [18],22%
same,Half-life of decline beyond 30 min after infusion,[1]; [18],~ 90 min
same,Adrenal response to the second ACTH challenge compared to vehicle control,"[3]; 180 min postinfusion, n = 4 dogs/group",normal adrenal response
same,Plasma cortisol concentrations compared to vehicle group over time,[3]; dogs,not significantly different from controls for all time points longer than 120 min after infusion termination
same,Half-time of adrenocortical recovery (normalized plasma cortisol),"[3]; after bolus plus 2-h infusion, n = 4 dogs",215 min
same,Shared Hill coefficient of in vivo adrenocortical concentration-response curves,[3],-2.0
same,"ACTH-stimulated plasma cortisol concentration, fold higher vs etomidate group","[3]; equivalent postinfusion time points after 2-h infusion, dogs",4- to 27 fold
same,In vivo IC50 for suppression of adrenocortical responsiveness to ACTH1-24,"[3]; plasma hypnotic concentration, dogs, Hill fit, estimated",0.027 µg/mL
same,Hypnotic recovery time following 2-h continuous infusion,rats [9],4.2 min
same,Plasma concentration in initial blood sample,"[2]; 30 s after IV bolus (CPMM 4 mg/kg, etomidate 2 mg/kg), n = 3 dogs","4,130 ± 640 ng/ml"
same,Plasma concentration 10 min after administration,[2]; [14],330 ± 41 ng/mL
same,Co,[2]; [14],"5,180 ± 1,120 ng/ml"
same,Decrease of plasma concentration from initial to final blood sample (2 h),"[2]; IV bolus, dogs",decreased by four orders of magnitude
same,Plasma concentration at 10 min as percentage of initial blood sample,"[2]; IV bolus, dogs",8%
same,Plasma concentration range during anesthetic recovery,[2]; dogs,approximately 500 ng/ml
same,Normalized plasma concentration as percentage of that of etomidate,"[2]; one hour after hypnotic bolus, dogs",7%
same,CL,[2]; [19],211 ± 26 mL/min/kg
same,Vss,[2]; [19],"1,880 ± 569 ml·kg^−1"
same,t1/2,"[2]; parent drug, IV bolus, n = 3 dogs, apparent terminal half-life",16.1 ± 2.99 min
same,AUC,[2]; [15],"19,200 ± 2,590 min-ng ml^−1"
same,Clearance relative to etomidate (fold higher),"[2]; single bolus, dogs",14 X
same,Terminal elimination half-life relative to etomidate,"[2]; single bolus, dogs",27%
same,Vss relative to total body water volume in dogs (600 ml/kg),"[2]; single bolus, dogs",3 X
same,Normalized plasma concentration as percentage of that of etomidate,"[2]; ten minutes after hypnotic bolus, dogs",33%
same,Dogs with myoclonus during infusion,dogs [4]; [16],4 dogs
same,Dogs with myoclonus during infusion,dogs [4]; [17],all four dogs had myoclonus
same,Persistence of myoclonus in the postinfusion period,dogs [4]; dogs,ceased within several minutes
same,Incidence of myoclonus during infusion,dogs [4],8/8
same,γ (slope parameter),dogs [5],1.3 0.7 – 1.9
same,EC anesthesia score 3,dogs [5],"2,798 1,840 – 4,256 ng/ml"
same,Hypnotic ED50,rats [10],~0.69 mg/kg
same,Slope of duration of hypnosis vs logarithm of dose,rats [10],6.9
same,Stability of formulated drug,[11],no significant degradation over time
same,Duration of LoRR,"dogs [6]; 1 mg/kg IV bolus, n = 3 dogs",1.8 ± 0.6 min
same,Duration of LoRR,"dogs [6]; 12 mg/kg IV bolus, n = 4 dogs",10.9 ± 0.7 min
same,Relative hypnotic potency CPMM vs etomidate,dogs [6]; dogs,half as potent; also recorded: approximately half that of etomidate
same,Bolus doses that induced LoRR in all dogs,"dogs [6]; dogs, IV bolus",≥ 1 mg/kg
same,Slope of duration of LoRR vs logarithm of dose,"dogs [6]; dogs, IV bolus",9.9
same,X-intercept of duration of LoRR vs logarithm of dose,"dogs [6]; dogs, IV bolus",0.88 mg/kg
same,LoRR at lower doses,"dogs [6]; dogs, IV bolus 0.25 mg/kg or 0.5 mg/kg",failed to induce LoRR in any dog
same,Time to induction of LoRR,"dogs [6]; dogs, IV bolus at doses ≥1 mg/kg",< 15 s
same,ED50 for loss of righting reflexes,"dogs [6]; dogs, IV bolus, approximate value from Hill fit",~ 0.8 mg/kg
same,Time to recover from anesthesia score 3 to score 0,dogs [7]; bolus followed by 2-h infusion,8 ± 3 min
same,Time to recover from anesthesia score 3 to score 2,dogs [7]; bolus followed by 2-h infusion,4.4 ± 1.3 min
same,Dependence of hypnotic recovery times on infusion duration,dogs [7]; bolus vs bolus plus 2-h infusion,independent of infusion duration
same,Recovery times from anesthesia score 3 to all lower scores compared to etomidate,dogs [7]; single bolus CPMM 4 mg/kg vs etomidate 2 mg/kg,significantly shorter
same,Time to recover from anesthesia score 3 to score 0,dogs [7]; single bolus only (4 mg/kg),11 ± 3 min
same,Time to recover from anesthesia score 3 to score 1,dogs [7]; single bolus only (4 mg/kg),5.5 ± 0.7 min
same,Time to recover from anesthesia score 3 to score 2,dogs [7]; single bolus only (4 mg/kg),4.3 ± 1.2 min
